Test results taken from patent US8461107B2 (Merck Sharp & Dohme Corp., priority 2008, dated 2013).

Molecular target: T1, HCV genotype 1b (BK) NS3 modified with a R155K mutation (Hepatitis C virus genotype 1b, UniProt P26663, R1181K)
T1 construct: HCV genotype 1b (BK) NS3 modified with a R155K mutation
Assay: HCV NS3 protease time-resolved fluorescence (TRF) assay, NS3 protease 1b R155K Ki activity
Type: biochemical
Conditions: HCV genotype 1b (BK) NS3 with R155K mutation; TRF peptide substrate 100 nM; Ki derived from IC50
Procedure, shortened: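 Pre-incubation of NS3/NS4A protease (genotype 1b BK, R155K) with inhibitor for 30 min, then 1 h at room temperature with 100 nM TRF peptide substrate in pH 7.5 HEPES buffer with 10 mM DTT. Reaction quenched with pH 5.5 MES; time-resolved fluorescence read (ex 340/em 615 nm). Ki derived from four-parameter IC50 fit via IC50=Ki(1+[S]/KM).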

**Q.** With C=C[C@@H]1C[C@]1(NC(=O)[C@@H]1C[C@@H]2CN1C(=O)[C@H](C(C)(C)C)NC(=O)O[C@@H]1CCC[C@H]1CCCCCn1c(cc3cc(Cl)ccc3c1=O)O2)C(=O)NS(=O)(=O)C1CC1 [(3aR,7S,10S,12R,25aR)-7-tert-butyl-16-chloro-N-((1R,2S)-1-{[(cyclopropylsulfonyl)amino]carbonyl}-2-vinylcyclopropyl)-5,8,19-trioxo-1,2,3,3a,5,6,7,8,11,12,21,22,23,24,25,25a-hexadecahydro-10H,19H-9,12-methanocyclopenta[18,19][1,10,3,6,12]dioxatriazacyclononadecino[12,11-b]isoquinoline-10-carboxamide] as the molecule, how does the Ki read?
**A.** < 100 pM

**Q.** C=C[C@@H]1C[C@]1(NC(=O)[C@@H]1C[C@@H]2CN1C(=O)[C@H](C1CCCC1)NC(=O)O[C@@H]1CCC[C@H]1CC/C=C/Cn1c(nc3c(OC)cccc3c1=O)O2)C(=O)NS(=O)(=O)C1CC1 [Example 51] was tested. Which Ki did it give?
**A.** < 100 pM

**Q.** With CC[C@@H]1C[C@]1(NC(=O)[C@@H]1C[C@@H]2CN1C(=O)[C@H](C1CCCC1)NC(=O)O[C@@H]1CCC[C@H]1CC/C=C/Cn1c(nc3cc(Br)ccc3c1=O)O2)C(=O)NS(=O)(=O)C1CC1 [(3aR,7S,10S,12R,22E,25aS)-16-bromo-7-cyclopentyl-N-((1R,2R)-1-{[(cyclopropylsulfonyl)amino]carbonyl}-2-ethylcyclopropyl)-5,8,19-trioxo-1,2,3,3a,5,6,7,8,11,12,21,24,25,25a-tetradecahydro-10H,19H-9,12-methanocyclopenta[18,19][1,10,3,6,12]dioxatriazacyclononadecino[11,12-b]quinazoline-10-carboxamide] as the molecule, how does the Ki read?
**A.** 100 to 500 pM

**Q.** How did the Ki turn out when CC[C@@H]1C[C@]1(NC(=O)[C@@H]1C[C@@H]2CN1C(=O)[C@H](C(C)(C)C)NC(=O)O[C@@H]1CCC[C@H]1C/C=C/CCn1c(cc3cc(Cl)ccc3c1=O)O2)C(=O)NS(=O)(=O)C1CC1 [(3aR,7S,10S,12R,23E,25aS)-7-tert-butyl-16-chloro-N-((1R,2R)-1-{[(cyclopropylsulfonyl)amino]carbonyl}-2-ethylcyclopropyl)-5,8,19-trioxo-1,2,3,3a,5,6,7,8,11,12,21,22,25,25a-tetradecahydro-10H,19H-9,12-methanocyclopenta[18,19][1,10,3,6,12]dioxatriazacyclononadecino[12,11-b]isoquinoline-10-carboxamide] was run?
**A.** 100 to 500 pM

**Q.** How did the Ki turn out when C=C[C@@H]1C[C@]1(NC(=O)[C@@H]1C[C@@H]2CN1C(=O)[C@H](C1CCCC1)NC(=O)O[C@@H]1CCC[C@H]1CC/C=C/Cn1c(nc3cc(C)ccc3c1=O)O2)C(=O)NS(=O)(=O)C1CC1 [Example 61] was run?
**A.** < 100 pM

**Q.** How did the Ki turn out when C=C[C@@H]1C[C@]1(NC(=O)[C@@H]1C[C@@H]2CN1C(=O)[C@H](C1CCCC1)NC(=O)O[C@@H]1CCC[C@H]1CC/C=C/Cn1c(nc3cccc(OC)c3c1=O)O2)C(=O)NS(=O)(=O)C1CC1 [(3aR,7S,10S,12R,22E,25aS)-7-cyclopentyl-N-((1R,2S)-1-{[(cyclopropylsulfonyl)amino]carbonyl}-2-vinylcyclopropyl)-18-methoxy-5,8,19-trioxo-1,2,3,3a,5,6,7,8,11,12,21,24,25,25a-tetradecahydro-10H,19H-9,12-methanocyclopenta[18,19][1,10,3,6,12]dioxatriazacyclononadecino[11,12-b]quinazoline-10-carboxamide] was run?
**A.** < 100 pM

**Q.** How did the Ki turn out when C=C[C@@H]1C[C@]1(NC(=O)[C@@H]1C[C@@H]2CN1C(=O)[C@H](C1CCCC1)NC(=O)O[C@@H]1CCC[C@H]1CCCCCn1c(ccc(-c3ccccc3)c1=O)O2)C(=O)NS(=O)(=O)C1CC1 [(1R,14R,18R,22S,25S)-22-cyclopentyl-N-((1R,2S)-1-{[(cyclopropylsulfonyl)amino]carbonyl}-2-vinylcyclopropyl)-7,20,23-trioxo-6-phenyl-2,19-dioxa-8,21,24-triazatetracyclo[22.2.1.0^3,8.0^14,18]heptacosa-3,5-diene-25-carboxamide] was run?
**A.** 100 to 500 pM
